Source: ChEMBL document CHEMBL3862012, “Methylene versus carbonyl bridge in the structure of new tubulin polymerization inhibitors with tricyclic A-rings” (Bioorg Med Chem, 2016)

Tested on: not listed separately
Test: Cytotoxicity against human EKVX cells assessed as growth inhibition at 10 uM after 48 hrs by SRB assay relative to control
Assay type: functional
Conditions: read-out: GI

Row | Structure (SMILES) | inhibition of growth at 10 µM [%]
1 | COc1ccc(CN2c3ccccc3Sc3ccccc32)c(F)c1 | 49

Tested on: not listed separately
Test: Cytotoxicity against human PC3 cells assessed as growth inhibition at 10 uM after 48 hrs by SRB assay relative to control
Assay type: functional
Conditions: PC-3, 48 h, read-out: GI

Row | Structure (SMILES) | inhibition of growth at 10 µM [%]
2 | COc1ccc(CN2c3ccccc3Sc3ccccc32)c(F)c1 | 70

Tested on: not listed separately
Test: Cytotoxicity against human MALME-3M cells assessed as growth inhibition at 10 uM after 48 hrs by SRB assay relative to control
Assay type: functional
Conditions: read-out: GI

Row | Structure (SMILES) | inhibition of growth at 10 µM [%]
3 | COc1ccc(CN2c3ccccc3Sc3ccccc32)c(F)c1 | 43

Tested on: not listed separately
Test: Cytotoxicity against human COLO205 cells assessed as growth inhibition at 10 uM after 48 hrs by SRB assay relative to control
Assay type: functional
Conditions: COLO 205, 48 h, read-out: GI

Row | Structure (SMILES) | inhibition of growth at 10 µM [%]
4 | COc1ccc(CN2c3ccccc3Sc3ccccc32)c(F)c1 | 88

Tested on: not listed separately
Test: Cytotoxicity against human T47D cells assessed as growth inhibition at 10 uM after 48 hrs by SRB assay relative to control
Assay type: functional
Conditions: read-out: GI

Row | Structure (SMILES) | inhibition of growth at 10 µM [%]
5 | COc1ccc(CN2c3ccccc3Sc3ccccc32)c(F)c1 | 88

Tested on: not listed separately
Test: Cytotoxicity against human RPMI8226 cells assessed as growth inhibition at 10 uM after 48 hrs by SRB assay relative to control
Assay type: functional
Conditions: RPMI-8226, 48 h, read-out: GI

Row | Structure (SMILES) | inhibition of growth at 10 µM [%]
6 | COc1ccc(CN2c3ccccc3Sc3ccccc32)c(F)c1 | 88

Tested on: not listed separately
Test: Cytotoxicity against human NCI-H23 cells assessed as growth inhibition at 10 uM after 48 hrs by SRB assay relative to control
Assay type: functional
Conditions: NCI-H23, 48 h, read-out: GI

Row | Structure (SMILES) | inhibition of growth at 10 µM [%]
7 | COc1ccc(CN2c3ccccc3Sc3ccccc32)c(F)c1 | 50

Tested on: not listed separately
Test: Cytotoxicity against human MDA-MB-435 cells assessed as growth inhibition at 10 uM after 48 hrs by SRB assay relative to control
Assay type: functional
Conditions: MDA-MB-435, 48 h, read-out: GI

Row | Structure (SMILES) | inhibition of growth at 10 µM [%]
8 | COc1ccc(CN2c3ccccc3Sc3ccccc32)c(F)c1 | 100

Tested on: not listed separately
Test: Cytotoxicity against human A549 cells assessed as growth inhibition at 10 uM after 48 hrs by SRB assay relative to control
Assay type: functional
Conditions: A549, 48 h, read-out: GI

Row | Structure (SMILES) | inhibition of growth at 10 µM [%]
9 | COc1ccc(CN2c3ccccc3Sc3ccccc32)c(F)c1 | 66

Tested on: not listed separately
Test: Cytotoxicity against human MCF7 cells assessed as growth inhibition at 10 uM after 48 hrs by SRB assay relative to control
Assay type: functional
Conditions: MCF7, 48 h, read-out: GI

Row | Structure (SMILES) | inhibition of growth at 10 µM [%]
10 | COc1ccc(CN2c3ccccc3Sc3ccccc32)c(F)c1 | 77

Tested on: not listed separately
Test: Cytotoxicity against human SF268 cells assessed as growth inhibition at 10 uM after 48 hrs by SRB assay relative to control
Assay type: functional
Conditions: SF-268, 48 h, read-out: GI

Row | Structure (SMILES) | inhibition of growth at 10 µM [%]
11 | COc1ccc(CN2c3ccccc3Sc3ccccc32)c(F)c1 | 48

Tested on: not listed separately
Test: Cytotoxicity against human M14 cells assessed as growth inhibition at 10 uM after 48 hrs by SRB assay relative to control
Assay type: functional
Conditions: M14, 48 h, read-out: GI

Row | Structure (SMILES) | inhibition of growth at 10 µM [%]
12 | COc1ccc(CN2c3ccccc3Sc3ccccc32)c(F)c1 | 89

Tested on: not listed separately
Test: Cytotoxicity against human MOLT4 cells assessed as growth inhibition at 10 uM after 48 hrs by SRB assay relative to control
Assay type: functional
Conditions: MOLT-4, 48 h, read-out: GI

Row | Structure (SMILES) | inhibition of growth at 10 µM [%]
13 | COc1ccc(CN2c3ccccc3Sc3ccccc32)c(F)c1 | 77

Tested on: not listed separately
Test: Cytotoxicity against human OVCAR3 cells assessed as growth inhibition at 10 uM after 48 hrs by SRB assay relative to control
Assay type: functional
Conditions: OVCAR-3, 48 h, read-out: GI

Row | Structure (SMILES) | inhibition of growth at 10 µM [%]
14 | COc1ccc(CN2c3ccccc3Sc3ccccc32)c(F)c1 | 100

Tested on: not listed separately
Test: Cytotoxicity against human NCI-H460 cells assessed as growth inhibition at 10 uM after 48 hrs by SRB assay relative to control
Assay type: functional
Conditions: NCI-H460, 48 h, read-out: GI

Row | Structure (SMILES) | inhibition of growth at 10 µM [%]
15 | COc1ccc(CN2c3ccccc3Sc3ccccc32)c(F)c1 | 89

Tested on: not listed separately
Test: Cytotoxicity against human UACC257 cells assessed as growth inhibition at 10 uM after 48 hrs by SRB assay relative to control
Assay type: functional
Conditions: UACC-257, 48 h, read-out: GI

Row | Structure (SMILES) | inhibition of growth at 10 µM [%]
16 | COc1ccc(CN2c3ccccc3Sc3ccccc32)c(F)c1 | 48

Tested on: not listed separately
Test: Cytotoxicity against human SNB19 cells assessed as growth inhibition at 10 uM after 48 hrs by SRB assay relative to control
Assay type: functional
Conditions: SNB-19, 48 h, read-out: GI

Row | Structure (SMILES) | inhibition of growth at 10 µM [%]
17 | COc1ccc(CN2c3ccccc3Sc3ccccc32)c(F)c1 | 59

Tested on: not listed separately
Test: Cytotoxicity against human RXF393 cells assessed as growth inhibition at 10 uM after 48 hrs by SRB assay relative to control
Assay type: functional
Conditions: RXF 393, 48 h, read-out: GI

Row | Structure (SMILES) | inhibition of growth at 10 µM [%]
18 | COc1ccc(CN2c3ccccc3Sc3ccccc32)c(F)c1 | 99

Tested on: not listed separately
Test: Cytotoxicity against human HT-29 cells assessed as growth inhibition at 10 uM after 48 hrs by SRB assay relative to control
Assay type: functional
Conditions: HT-29, 48 h, read-out: GI

Row | Structure (SMILES) | inhibition of growth at 10 µM [%]
19 | COc1ccc(CN2c3ccccc3Sc3ccccc32)c(F)c1 | 96

Tested on: not listed separately
Test: Cytotoxicity against human HL-60(TB) cells assessed as growth inhibition at 10 uM after 48 hrs by SRB assay relative to control
Assay type: functional
Conditions: HL-60, 48 h, read-out: GI

Row | Structure (SMILES) | inhibition of growth at 10 µM [%]
20 | COc1ccc(CN2c3ccccc3Sc3ccccc32)c(F)c1 | 100

Tested on: not listed separately
Test: Cytotoxicity against human OVCAR4 cells assessed as growth inhibition at 10 uM after 48 hrs by SRB assay relative to control
Assay type: functional
Conditions: OVCAR-4, 48 h, read-out: GI

Row | Structure (SMILES) | inhibition of growth at 10 µM [%]
21 | COc1ccc(CN2c3ccccc3Sc3ccccc32)c(F)c1 | 38

Tested on: not listed separately
Test: Cytotoxicity against human 786-0 cells assessed as growth inhibition at 10 uM after 48 hrs by SRB assay relative to control
Assay type: functional
Conditions: 786-0, 48 h, read-out: GI

Row | Structure (SMILES) | inhibition of growth at 10 µM [%]
22 | COc1ccc(CN2c3ccccc3Sc3ccccc32)c(F)c1 | 58

Tested on: not listed separately
Test: Cytotoxicity against human ACHN cells assessed as growth inhibition at 10 uM after 48 hrs by SRB assay relative to control
Assay type: functional
Conditions: read-out: GI

Row | Structure (SMILES) | inhibition of growth at 10 µM [%]
23 | COc1ccc(CN2c3ccccc3Sc3ccccc32)c(F)c1 | 57

Tested on: not listed separately
Test: Cytotoxicity against human SW620 cells assessed as growth inhibition at 10 uM after 48 hrs by SRB assay relative to control
Assay type: functional
Conditions: SW-620, 48 h, read-out: GI

Row | Structure (SMILES) | inhibition of growth at 10 µM [%]
24 | COc1ccc(CN2c3ccccc3Sc3ccccc32)c(F)c1 | 90

Tested on: not listed separately
Test: Cytotoxicity against human CCRF-CEM cells assessed as growth inhibition at 10 uM after 48 hrs by SRB assay relative to control
Assay type: functional
Conditions: read-out: GI

Row | Structure (SMILES) | inhibition of growth at 10 µM [%]
25 | COc1ccc(CN2c3ccccc3Sc3ccccc32)c(F)c1 | 93

Tested on: not listed separately
Test: Cytotoxicity against human U251 cells assessed as growth inhibition at 10 uM after 48 hrs by SRB assay relative to control
Assay type: functional
Conditions: U-251, 48 h, read-out: GI

Row | Structure (SMILES) | inhibition of growth at 10 µM [%]
26 | COc1ccc(CN2c3ccccc3Sc3ccccc32)c(F)c1 | 70

Tested on: not listed separately
Test: Cytotoxicity against human NCI-H522 cells assessed as growth inhibition at 10 uM after 48 hrs by SRB assay relative to control
Assay type: functional
Conditions: NCI-H522, 48 h, read-out: GI

Row | Structure (SMILES) | inhibition of growth at 10 µM [%]
27 | COc1ccc(CN2c3ccccc3Sc3ccccc32)c(F)c1 | 100

Tested on: not listed separately
Test: Cytotoxicity against human UO31 cells assessed as growth inhibition at 10 uM after 48 hrs by SRB assay relative to control
Assay type: functional
Conditions: UO-31, 48 h, read-out: GI

Row | Structure (SMILES) | inhibition of growth at 10 µM [%]
28 | COc1ccc(CN2c3ccccc3Sc3ccccc32)c(F)c1 | 57

Tested on: not listed separately
Test: Cytotoxicity against human SK-MEL-2 cells assessed as growth inhibition at 10 uM after 48 hrs by SRB assay relative to control
Assay type: functional
Conditions: SK-MEL-2, 48 h, read-out: GI

Row | Structure (SMILES) | inhibition of growth at 10 µM [%]
29 | COc1ccc(CN2c3ccccc3Sc3ccccc32)c(F)c1 | 70

Tested on: not listed separately
Test: Cytotoxicity against human KM12 cells assessed as growth inhibition at 10 uM after 48 hrs by SRB assay relative to control
Assay type: functional
Conditions: KM12, 48 h, read-out: GI

Row | Structure (SMILES) | inhibition of growth at 10 µM [%]
30 | COc1ccc(CN2c3ccccc3Sc3ccccc32)c(F)c1 | 74

Tested on: not listed separately
Test: Cytotoxicity against human MDA-MB-468 cells assessed as growth inhibition at 10 uM after 48 hrs by SRB assay relative to control
Assay type: functional
Conditions: MDA-MB-468, 48 h, read-out: GI

Row | Structure (SMILES) | inhibition of growth at 10 µM [%]
31 | COc1ccc(CN2c3ccccc3Sc3ccccc32)c(F)c1 | 98

Tested on: not listed separately
Test: Cytotoxicity against human HCT116 cells assessed as growth inhibition at 10 uM after 48 hrs by SRB assay relative to control
Assay type: functional
Conditions: HCT-116, 48 h, read-out: GI

Row | Structure (SMILES) | inhibition of growth at 10 µM [%]
32 | COc1ccc(CN2c3ccccc3Sc3ccccc32)c(F)c1 | 84

Tested on: not listed separately
Test: Cytotoxicity against human HCT15 cells assessed as growth inhibition at 10 uM after 48 hrs by SRB assay relative to control
Assay type: functional
Conditions: HCT-15, 48 h, read-out: GI

Row | Structure (SMILES) | inhibition of growth at 10 µM [%]
33 | COc1ccc(CN2c3ccccc3Sc3ccccc32)c(F)c1 | 65

Tested on: not listed separately
Test: Cytotoxicity against human NCI-H322M cells assessed as growth inhibition at 10 uM after 48 hrs by SRB assay relative to control
Assay type: functional
Conditions: read-out: GI

Row | Structure (SMILES) | inhibition of growth at 10 µM [%]
34 | COc1ccc(CN2c3ccccc3Sc3ccccc32)c(F)c1 | 55

Organism: Ovis aries
Test: Inhibition of sheep brain tubulin polymerization at 100 uM by DAPI staining-based fluorimetric method relative to control
Conditions: not given

Row | Structure (SMILES) | inhibition [%]
35 | COc1ccc(CN2c3ccccc3Sc3ccccc32)c(F)c1 | 7

Tested on: not listed separately
Test: Cytotoxicity against human OVCAR5 cells assessed as growth inhibition at 10 uM after 48 hrs by SRB assay relative to control
Assay type: functional
Conditions: OVCAR-5, 48 h, read-out: GI

Row | Structure (SMILES) | inhibition of growth at 10 µM [%]
36 | COc1ccc(CN2c3ccccc3Sc3ccccc32)c(F)c1 | 50

Tested on: not listed separately
Test: Cytotoxicity against human NCI-ADR-RES cells assessed as growth inhibition at 10 uM after 48 hrs by SRB assay relative to control
Assay type: functional
Conditions: read-out: GI

Row | Structure (SMILES) | inhibition of growth at 10 µM [%]
37 | COc1ccc(CN2c3ccccc3Sc3ccccc32)c(F)c1 | 78

Tested on: not listed separately
Test: Cytotoxicity against human Hs 578T cells assessed as growth inhibition at 10 uM after 48 hrs by SRB assay relative to control
Assay type: functional
Conditions: read-out: GI

Row | Structure (SMILES) | inhibition of growth at 10 µM [%]
38 | COc1ccc(CN2c3ccccc3Sc3ccccc32)c(F)c1 | 78
